In PMC4579270, “Identification and Characterization of an Irreversible Inhibitor of CDK2” (Chemistry & Biology, 2015):

How the values were obtained:
EPH-B3 = target: T1, EPH-B3 (Homo sapiens, UniProt P54753); test: Dundee protein kinase screen; type: biochemical; conditions: EPH-B3, 1µM; read-out: %Remaining activity at 1µM NU6300
T1 sequence (P54753 34-998): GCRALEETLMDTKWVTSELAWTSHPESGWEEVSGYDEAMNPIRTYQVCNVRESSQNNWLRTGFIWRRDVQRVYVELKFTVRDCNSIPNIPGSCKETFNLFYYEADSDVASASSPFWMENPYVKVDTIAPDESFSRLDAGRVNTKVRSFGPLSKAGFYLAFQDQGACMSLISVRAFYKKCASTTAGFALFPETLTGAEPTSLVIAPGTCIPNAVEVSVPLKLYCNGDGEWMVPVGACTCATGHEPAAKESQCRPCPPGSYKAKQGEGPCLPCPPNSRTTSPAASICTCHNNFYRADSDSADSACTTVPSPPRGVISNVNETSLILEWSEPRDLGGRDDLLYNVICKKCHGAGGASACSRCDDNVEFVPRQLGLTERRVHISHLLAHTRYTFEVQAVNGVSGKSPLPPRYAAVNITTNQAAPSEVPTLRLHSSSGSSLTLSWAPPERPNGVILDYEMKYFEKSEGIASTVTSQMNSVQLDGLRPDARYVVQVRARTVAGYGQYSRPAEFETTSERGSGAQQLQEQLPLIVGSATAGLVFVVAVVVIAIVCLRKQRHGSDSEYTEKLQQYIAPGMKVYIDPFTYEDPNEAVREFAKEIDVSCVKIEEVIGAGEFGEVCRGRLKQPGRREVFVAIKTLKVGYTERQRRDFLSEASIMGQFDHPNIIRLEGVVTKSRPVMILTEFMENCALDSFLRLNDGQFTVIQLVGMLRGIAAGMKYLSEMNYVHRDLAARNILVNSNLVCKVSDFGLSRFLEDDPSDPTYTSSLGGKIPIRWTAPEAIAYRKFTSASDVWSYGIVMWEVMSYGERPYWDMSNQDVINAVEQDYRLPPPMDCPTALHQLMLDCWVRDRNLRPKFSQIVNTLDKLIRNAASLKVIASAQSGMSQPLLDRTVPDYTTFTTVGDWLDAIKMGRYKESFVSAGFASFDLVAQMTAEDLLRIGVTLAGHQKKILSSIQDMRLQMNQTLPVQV
Method: (§1) Prior to determining its cellular activity, we carried out a screen to assess its selectivity against a panel of 131 protein kinases under conditions that would not distinguish between a reversible or irreversible mode of action. […] These 13 kinases and 29 additional kinases, selected for their known sensitivity to other inhibitors within the purine series, were then tested in a modified screening format in which the assay was repeated following a 4-hr pre-incubation (Table S3B). […] However, conformational flexibility around the active site may promote such an interaction with a residue from another part of the structure ([Martin et al., 2012]).
(§2) Table S3, Related to Figure 4. NCL-0006300 protein kinase selectivity. (A) NU6300 was tested at a single concentration of 1µM against 131 protein kinases present in a Dundee protein kinase screen (Bain et al., 2007). Values given are % activity remaining and are the average of duplicate measurements: 0-25% (red), 26-50% (yellow), 51-80% (black) and above 81% (green). The kinase domain sequences (as defined by UniProt) of […]
(§3) have a lysine residue at a position close to CDK2 Lys88 or Lys89. However, in the structure of tyrosine-protein kinase BTK (PDB ID: 3GEN) the residue equivalent to CDK2 Asp86 is Cys481 and therefore there is the potential for a covalent adduct to be formed through this side chain. Ephrin type-B receptor 3 (UniProt entry P54753) also encodes a cysteine residue (Cys717) that by sequence alignment would be predicted to be close to the CDK2 lysine pair. (B) Selected kinases were re-tested in the Dundee kinase screen against NU6300 at a single concentration of 0.5 µM both in the standard assay format and following a 4 hour pre-incubation in the presence of NU6300. Kinases which have very low activity after the 4 hour incubation so that results might not be wholly reliable are boxed in salmon. Kinases where the activity after a 4 hour pre-incubation is < 50% that in the standard assay format are highlighted in red.

VEG-FR1 = VEG-FR1 (Homo sapiens, UniProt P17948); test: Dundee protein kinase screen; type: biochemical; conditions: VEG-FR1, 1µM; read-out: %Remaining activity at 1µM NU6300
Method: as §1, §2, §3

Chain of VEG-FR1 (P17948 27-1338): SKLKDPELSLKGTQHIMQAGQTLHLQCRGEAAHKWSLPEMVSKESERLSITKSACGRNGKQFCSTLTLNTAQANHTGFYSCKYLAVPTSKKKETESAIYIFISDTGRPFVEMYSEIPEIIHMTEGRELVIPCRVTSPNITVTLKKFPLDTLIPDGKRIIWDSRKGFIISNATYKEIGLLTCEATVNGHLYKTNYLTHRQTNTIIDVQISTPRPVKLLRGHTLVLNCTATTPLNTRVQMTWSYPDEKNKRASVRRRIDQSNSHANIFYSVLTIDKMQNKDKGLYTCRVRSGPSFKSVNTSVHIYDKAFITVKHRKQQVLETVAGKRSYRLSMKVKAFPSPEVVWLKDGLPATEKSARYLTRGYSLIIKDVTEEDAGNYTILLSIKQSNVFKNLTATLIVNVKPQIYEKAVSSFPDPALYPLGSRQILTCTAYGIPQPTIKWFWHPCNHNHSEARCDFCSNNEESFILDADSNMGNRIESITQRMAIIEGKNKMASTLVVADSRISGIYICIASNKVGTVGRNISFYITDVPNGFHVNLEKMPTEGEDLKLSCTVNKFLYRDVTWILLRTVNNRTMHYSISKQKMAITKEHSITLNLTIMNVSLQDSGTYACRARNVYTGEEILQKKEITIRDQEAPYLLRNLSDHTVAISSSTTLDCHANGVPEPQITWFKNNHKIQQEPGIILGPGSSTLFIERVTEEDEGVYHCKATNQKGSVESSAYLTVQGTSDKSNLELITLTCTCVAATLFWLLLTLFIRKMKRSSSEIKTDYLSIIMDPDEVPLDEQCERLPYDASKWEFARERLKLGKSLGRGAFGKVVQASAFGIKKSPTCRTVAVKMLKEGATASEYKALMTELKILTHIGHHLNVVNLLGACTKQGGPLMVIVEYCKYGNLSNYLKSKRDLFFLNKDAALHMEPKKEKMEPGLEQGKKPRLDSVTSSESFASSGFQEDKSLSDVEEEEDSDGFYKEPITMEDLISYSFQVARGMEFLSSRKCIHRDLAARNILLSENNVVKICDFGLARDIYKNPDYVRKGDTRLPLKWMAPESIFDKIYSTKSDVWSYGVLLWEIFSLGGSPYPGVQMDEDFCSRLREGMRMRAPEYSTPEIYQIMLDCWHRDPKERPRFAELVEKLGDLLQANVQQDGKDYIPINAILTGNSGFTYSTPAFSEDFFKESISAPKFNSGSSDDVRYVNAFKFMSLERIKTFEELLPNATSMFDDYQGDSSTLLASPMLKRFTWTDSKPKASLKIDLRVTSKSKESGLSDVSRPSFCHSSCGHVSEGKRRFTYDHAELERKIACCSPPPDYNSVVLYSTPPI

SMILES: C=CS(=O)(=O)c1ccc(Nc2nc(OCC3CCCCC3)c3nc[nH]c3n2)cc1 [NU6300, 6-(cyclohexylmethoxy)-N-(4-(vinylsulfonyl)phenyl)-9H-purin-2-amine]
- remaining activity at 1 µM (EPH-B3): 14%
- remaining activity at 1 µM (VEG-FR1): 14%
